For three compounds, RF and IC50 results are on record in ChEMBL document CHEMBL1133832, “Synthesis of the first example of a C2-C3/C2'-C3'-endo unsaturated pyrrolo[2,1-c][1,4]benzodiazepine dimer” (Bioorg Med Chem Lett, 2001).

Test [1] is described as follows: Resistance factor (IC50 resistant/ parent). Type of test: functional.
The subject of test [2] is A2780. Description: Dose of required to inhibit growth of human ovarian carcinoma (A2780) cell line with compound free controls as measured by the sulforhodamine B growth delay assay. Format: functional, cell-based.
In test [3] the test system is A2780. Briefly: Dose of required to inhibit growth of cisplatin resistant human ovarian carcinoma (A2780 cisR) cell line with compound free controls as measured by the sulforhodamine B growth delay assay. Type of test: functional, cell-based.

`C=C1C[C@H]2C=Nc3cc(OCCCOc4cc5c(cc4OC)C(=O)N4CC(=C)C[C@H]4C=N5)c(OC)cc3C(=O)N2C1` [SJG-136]: the RF in test [1] came to 1. Further, the IC50 in test [2] stood at 0.0225 nM; in test [3] it was 0.024 nM.
For `COc1cc2c(cc1OCCCOc1cc3c(cc1OC)C(=O)N1CCC[C@H]1C=N3)N=C[C@@H]1CCCN1C2=O`, the RF in test [1] came to 29.2.
Regarding `COC(=O)CC1=CN2C(=O)c3cc(OC)c(OCCCOc4cc5c(cc4OC)C(=O)N4C=C(CC(=O)OC)C[C@H]4C=N5)cc3N=C[C@@H]2C1`, the RF in test [1] was 10.7. The IC50 was 5.4 nM in test [2] and 58 nM in test [3].
